Laboratory results from patent US5496823A, “Pharmaceutical composition for increasing bladder capacity” (Hoechst Japan Limited, priority 1991, dated 1996).

Experiments:
[1] = system: urination-reflexing constriction of the bladder; assay: urination-reflexing constriction of the bladder (cystometrogram) in anesthetized rats, intravenous administration; type: in vivo, SD male rats; settings: for Bladder capacity, First / Bladder capacity, Second / Urination constriction pressure, First / Urination constriction pressure, Second / Urination threshold pressure, First / Urination threshold pressure, Second: relative level, pre-drug value = 1, mean ± SD
From the text: (§1) Effects of test drugs on urination-reflexing constriction of the bladder in anesthetized rats were examined according to Morikawa, et al. [in Oyo Yakuri/Pharmacometrics, Vol. 37, No. 1, pages 27-37, (1989)]. In the following examples, the bladder capacity designates the time from a urination to the next urination (urination interval), urination threshold pressure designates intracystic pressure) immediately prior to initiation of urination constriction and urination constriction pressure designates maximum internal pressure on urination constriction. Figures in the below table indicate relative level from the first and second reactions after administration of a drug taking the measured value before administration of the drug as 1 for bladder capacity (min.), urination threshold pressure (mmHg) and urination constriction pressure (mmHg), respectively.
(§2) Groups of 4-6 SD male rats were used and each animal was subjected to laparotomy under anesthesia with urethan, ligature around the ureter and then exposure of the bladder, on the top of which was perforated with a small opening, through which a cannula with a three-way step cock was inserted.
(§3) One of the three-way stop cock was connected to a syringe for continuously introducing a physiological saline solution and another to a pressure transducer for the measurement of intrasystic pressure.
(§4) A physiological saline solution was introduced into the bladder at a rate of 55 μl per min., and changes in intracystic pressure were recorded until urination. From the intracystic pressure curve were determined bladder capacity, urination threshold pressure and urination constriction pressure to examine the action of the introduction of physiological saline solution.
The drug was given via a polyethylene tube inserted into the femoral vein. […]

[2] = system: urination-reflexing constriction of the bladder; assay: urination-reflexing constriction of the bladder (cystometrogram) in anesthetized rats, intraduodenal administration; type: in vivo, SD male rats; settings: relative level, pre-drug value = 1, mean ± SD
From the text: as §1, §2, §3, §4
Groups of 4-5 SD male rats were fasted overnight and subjected to the same experimental procedures as in Example 1. The drug was given via a polyethylene tube inserted into the duodenum.

[3] = Japanese Patent Publication No. 33120/1977; cited from earlier work

CCOCn1cnc2c1c(=O)n(CCCCC(C)(C)O)c(=O)n2C [Compound VI, 3,7-dihydro-3-methyl-1-(5-hydroxy-5-methylhexyl)-7-ethoxymethyl-1H-purine-2,6-dione]
Bladder capacity, First ([1]; Table 3, 20 mg/kg i.v., n=5): 1.8 ± 0.9
Bladder capacity, Second ([1]; Table 3, 20 mg/kg i.v., n=5): 1.4 ± 1.0
Urination constriction pressure, First ([1]; Table 3, 20 mg/kg i.v., n=5): 1.0 ± 0.1
Urination constriction pressure, Second ([1]; Table 3, 20 mg/kg i.v., n=5): 1.0 ± 0.1
Urination threshold pressure, First ([1]; Table 3, 20 mg/kg i.v., n=5): 1.3 ± 0.9
Urination threshold pressure, Second ([1]; Table 3, 20 mg/kg i.v., n=5): 1.0 ± 0.4

CCCn1cnc2c1c(=O)n(CCCCC(C)=O)c(=O)n2C [propentofylline, 3,7-dihydro-3-methyl-1-(5-oxohexyl)-7-propyl-1H-purine-2,6-dione]
Bladder capacity, First ([1]; 0.2 mg/kg i.v., n=5): 1.2 ± 0.8
Bladder capacity, Second ([1]; 0.2 mg/kg i.v., n=5): 1.1 ± 0.4
Urination constriction pressure, First ([1]; 0.2 mg/kg i.v., n=5): 1.0 ± 0.1
Urination constriction pressure, Second ([1]; 0.2 mg/kg i.v., n=5): 0.9 ± 0.1
Urination threshold pressure, First ([1]; 0.2 mg/kg i.v., n=5): 1.2 ± 0.5
Urination threshold pressure, Second ([1]; 0.2 mg/kg i.v., n=5): 1.0 ± 0.3
Bladder capacity, First ([1]; 1 mg/kg i.v., n=5): 2.5 ± 1.9
Bladder capacity, Second ([1]; 1 mg/kg i.v., n=5): 0.7 ± 0.2
Urination constriction pressure, First ([1]; 1 mg/kg i.v., n=5): 1.0 ± 0.1
Urination constriction pressure, Second ([1]; 1 mg/kg i.v., n=5): 1.1 ± 0.2
Urination threshold pressure, First ([1]; 1 mg/kg i.v., n=5): 1.1 ± 0.1
Urination threshold pressure, Second ([1]; 1 mg/kg i.v., n=5): 1.1 ± 0.2
Bladder capacity, Second ([1]; 5 mg/kg i.v., n=6): 1.0 ± 0.5
Urination constriction pressure, First ([1]; 5 mg/kg i.v., n=6): 1.0 ± 0.1
Urination constriction pressure, Second ([1]; 5 mg/kg i.v., n=6): 1.0 ± 0.2
Urination threshold pressure, First ([1]; 5 mg/kg i.v., n=6): 1.5 ± 0.4
Urination threshold pressure, Second ([1]; 5 mg/kg i.v., n=6): 1.2 ± 0.6
Bladder capacity, First ([1]; 5 mg/kg i.v., n=6, P < 0.05): 4.1 ± 2.6
Bladder capacity, Second ([1]; 10 mg/kg i.v., n=5): 0.9 ± 0.5
Urination constriction pressure, First ([1]; 10 mg/kg i.v., n=5): 1.0 ± 0.2
Urination constriction pressure, Second ([1]; 10 mg/kg i.v., n=5): 1.0 ± 0.2
Urination threshold pressure, Second ([1]; 10 mg/kg i.v., n=5): 1.1 ± 0.3
Urination threshold pressure, First ([1]; 10 mg/kg i.v., n=5, P < 0.01): 2.1 ± 0.7
Bladder capacity, First ([1]; 10 mg/kg i.v., n=5, P < 0.05): 3.5 ± 1.1
Bladder capacity, Second ([1]; 20 mg/kg i.v., n=5): 1.0 ± 0.8
Urination constriction pressure, First ([1]; 20 mg/kg i.v., n=5): 1.0 ± 0.1
Urination constriction pressure, Second ([1]; 20 mg/kg i.v., n=5): 1.0 ± 0.1
Urination threshold pressure, Second ([1]; 20 mg/kg i.v., n=5): 1.5 ± 0.8
Urination threshold pressure, First ([1]; 20 mg/kg i.v., n=5, P < 0.01): 2.5 ± 0.8
Bladder capacity, First ([1]; 20 mg/kg i.v., n=5, P < 0.05): 4.9 ± 3.2
constrictive force of the bladder (in words) ([1]; animal experiments, summary): almost no influence upon constrictive force of the bladder
substantial bladder capacity / volume (in words) ([1]; animal experiments, summary): increased substantial bladder capacity
urination intervals (in words) ([1]; animal experiments, summary): prolonged urination intervals
urination threshold pressure (in words) ([1]; animal experiments, summary): increased urination threshold pressure
Bladder capacity, First ([2]; 3 mg/kg intraduodenal, n=4): 1.1 ± 0.2
Bladder capacity, Second ([2]; 3 mg/kg intraduodenal, n=4): 1.1 ± 0.3
Urination constriction pressure, First ([2]; 3 mg/kg intraduodenal, n=4): 1.1 ± 0.1
Urination constriction pressure, Second ([2]; 3 mg/kg intraduodenal, n=4): 1.1 ± 0.2
Urination threshold pressure, First ([2]; 3 mg/kg intraduodenal, n=4): 1.0 ± 0.2
Urination threshold pressure, Second ([2]; 3 mg/kg intraduodenal, n=4): 1.0 ± 0.2
Bladder capacity, First ([2]; 10 mg/kg intraduodenal, n=4): 2.7 ± 1.8
Bladder capacity, Second ([2]; 10 mg/kg intraduodenal, n=4): 1.0 ± 1.0
Urination constriction pressure, First ([2]; 10 mg/kg intraduodenal, n=4): 1.0 ± 0.1
Urination constriction pressure, Second ([2]; 10 mg/kg intraduodenal, n=4): 0.9 ± 0.1
Urination threshold pressure, First ([2]; 10 mg/kg intraduodenal, n=4): 1.3 ± 0.3
Urination threshold pressure, Second ([2]; 10 mg/kg intraduodenal, n=4): 1.3 ± 0.5
Bladder capacity, First ([2]; 30 mg/kg intraduodenal, n=5): 2.7 ± 1.6
Bladder capacity, Second ([2]; 30 mg/kg intraduodenal, n=5): 0.8 ± 0.6
Urination constriction pressure, First ([2]; 30 mg/kg intraduodenal, n=5): 0.9 ± 0.1
Urination constriction pressure, Second ([2]; 30 mg/kg intraduodenal, n=5): 1.0 ± 0.1
Urination threshold pressure, First ([2]; 30 mg/kg intraduodenal, n=5): 1.6 ± 0.9
Urination threshold pressure, Second ([2]; 30 mg/kg intraduodenal, n=5): 1.4 ± 0.9
Bladder capacity, Second ([2]; 50 mg/kg intraduodenal, n=5): 0.6 ± 0.2
Urination constriction pressure, First ([2]; 50 mg/kg intraduodenal, n=5): 1.0 ± 0.1
Urination constriction pressure, Second ([2]; 50 mg/kg intraduodenal, n=5): 1.0
Urination threshold pressure, Second ([2]; 50 mg/kg intraduodenal, n=5): 1.4 ± 0.7
Bladder capacity, First ([2]; 50 mg/kg intraduodenal, n=5, P < 0.01): 4.3 ± 2.1
Urination threshold pressure, First ([2]; 50 mg/kg intraduodenal, n=5, P < 0.05): 1.7 ± 0.6
action on vertebral artery (in words) [3]: specifically active on vertebral artery
blood flow during cerebral circulation (in words) [3]: increase blood flow highly selectively during cerebral circulation
